Results on 22 compounds are retold here after patent US7989497B2, “Squaramide derivatives as CXCR2 antagonist” (Novartis AG, priority 2008, dated 2011).

The assay concerns the target T1, human CXCR2 receptor (Homo sapiens, UniProt P25025).
T1 construct: purchased Biosignal Packard Inc; host or cells: CHO-K1 (Chinese hamster ovary) cell membranes
T1 sequence (P25025 1-360): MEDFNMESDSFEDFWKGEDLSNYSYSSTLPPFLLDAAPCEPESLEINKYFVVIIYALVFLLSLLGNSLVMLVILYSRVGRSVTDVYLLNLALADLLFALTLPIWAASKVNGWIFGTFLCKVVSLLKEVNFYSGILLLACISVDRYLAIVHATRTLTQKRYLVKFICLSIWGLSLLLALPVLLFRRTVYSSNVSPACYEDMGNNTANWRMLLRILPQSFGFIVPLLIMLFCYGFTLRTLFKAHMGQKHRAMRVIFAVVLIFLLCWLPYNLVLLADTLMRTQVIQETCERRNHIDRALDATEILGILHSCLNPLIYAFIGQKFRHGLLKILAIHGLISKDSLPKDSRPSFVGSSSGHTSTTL
Nature of the assay: [35S]-GTPγS binding assay for human CXCR2 receptor using SPA technology. The conditions noted are these: CHO-K1 membranes expressing human CXCR2, 100 nM IL-8. It is filed as biochemical. The source says: [^35S]-GTPγS Binding Assay for Human CXCR2 Receptor Using SPA Technology
[^35S]-GTPγS (with specific activity 1082 Ci/mmol) and wheat germ agglutinin poly vinyl toluene scintillation proximity beads are purchased from Amersham Pharmacia Biotech. The Chinese hamster ovary cell (CHO-K1) membranes expressing human CXCR2 receptors are purchased from Biosignal Packard Inc. All other chemicals are of analytical grade. White non-binding surface 96 well Optiplate™ microplates are obtained from Packard. Recombinant human IL-8 is synthesised, cloned and expressed in Escherichia coli as described previously (Lindley I, et al., Proc. Natl. Acad. Sci., 1988, 85(23):9199).
The assay is performed in duplicate in 96 well Optiplate™ microplate in a final volume of 250 μl per well. Compounds are diluted in DMSO (0.5% final concentration) and incubated in 20 mM HEPES buffer pH 7.4 containing 10 mM MgCl2, 100 mM NaCl, 1 mM EDTA plus 100 nM IL-8, 50 μM GDP and 500 pM [^35S]GTPγS per well. SPA beads (1 mg/well final concentration) were pre-mixed with the membranes (10 μg/well final concentration) in assay buffer: 20 mM HEPES buffer pH 7.4 containing 10 mM MgCl2, 100 mM NaCl, 1 mM EDTA. The bead membrane mixture is added to each well, plates are sealed and incubated at room temperature for 60 minutes. The plate is centrifuged and read on Packard TopCount™ scintillation counter, program [^35S dpm] for 1 min/well. Data are expressed as the % response to 100 nM IL-8 minus basal.
(GTPγS resists hydrolysis and so accumulates on activated G proteins.)
As a reminder, the IC50 is the concentration needed to halve the response being measured. `CCC(Nc1c(Nc2ccc(Cl)c(S(=O)(=O)N(C)OC)c2O)c(=O)c1=O)[C@H]1CCCO1` (stereo in doubt) [Example 4, 6-Chloro-3-{3,4-dioxo-2-[(R)-1-(tetrahydro-furan-2-yl)-propylamino]-cyclobut-1-enylamino}-2-hydroxy-N-methoxy-N-methyl-benzenesulfonamide] showed an IC50 of 13 nM.
To `CC[C@@H](Nc1c(Nc2ccc(Cl)c(S(=O)(=O)N(C)OC)c2O)c(=O)c1=O)c1ccc(C)o1` [Example 2, 6-Chloro-2-hydroxy-N-methoxy-N-methyl-3-{2-[(R)-1-(5-methyl-furan-2-yl)-propylamino]-3,4-dioxo-cyclobut-1-enylamino}-benzenesulfonamide] belongs 2 nM.
The figure for `CC[C@@H](Nc1c(Nc2ccc(Cl)c(S(=O)(=O)N(CC)OC)c2O)c(=O)c1=O)[C@H]1CCCO1` [Example 2.13, 6-Chloro-3-{3,4-dioxo-2-[(R)-(R)-1-(tetrahydro-furan-2-yl)-propylamino]-cyclobut-1-enylamino}-N-ethyl-2-hydroxy-N-methoxy-benzene sulfonamide] is 6 nM; for `CON(C)S(=O)(=O)c1c(Cl)ccc(Nc2c(NC(C3CC3)C3CC3)c(=O)c2=O)c1O` [Example 2.17, 6-chloro-3-(2-(dicyclopropylmethylamino)-3,4-dioxocyclobut-1-enylamino)-2-hydroxy-N-methoxy-N-methylbenzenesulfonamide] it is 8 nM; for `CCN(OC)S(=O)(=O)c1c(Cl)ccc(Nc2c(NC(C)C)c(=O)c2=O)c1O` [Example 2.19, 6-chloro-N-ethyl-2-hydroxy-3-(2-(isopropylamino)-3,4-dioxocyclobut-1-enylamino)-N-methoxybenzenesulfonamide] it is 9 nM.
The figure for `COCC(C)Nc1c(Nc2ccc(Cl)c(S(=O)(=O)N(C)OC)c2O)c(=O)c1=O` (stereo not shown) [Example 2.23, 6-chloro-2-hydroxy-N-methoxy-3-(2-(1-methoxypropan-2-ylamino)-3,4-dioxocyclobut-1-enylamino)-N-methylbenzenesulfonamide] is 21 nM; for `CCC(Nc1c(Nc2ccc(Cl)c(S(=O)(=O)N(C)OC)c2O)c(=O)c1=O)c1cccc(C)n1` (stereo not shown) [Example 2.27, 6-chloro-2-hydroxy-N-methoxy-N-methyl-3-(2-(1-(6-methylpyridin-2-yl)propylamino)-3,4-dioxocyclobut-1-enylamino)benzenesulfonamide] it is 234 nM.
`CC[C@@H](Nc1c(Nc2ccc(Cl)c(S(=O)(=O)N3C[C@H](O)CO3)c2O)c(=O)c1=O)[C@H]1CC[C@@H](C)O1` [Example 2.32, 3-(4-chloro-2-hydroxy-3-((S)-4-hydroxyisoxazolidin-2-ylsulfonyl)phenylamino)-4-((R)-1-((2R,5R)-5-methyltetrahydrofuran-2-yl)propylamino)cyclobut-3-ene-1,2-dione]: the IC50 was 11 nM.
With `CON(C)S(=O)(=O)c1c(Cl)ccc(Nc2c(NC(C)C)c(=O)c2=O)c1O` [Example 2.35, 6-chloro-2-hydroxy-3-(2-(isopropylamino)-3,4-dioxocyclobut-1-enylamino)-N-methoxy-N-methylbenzenesulfonamide], the IC50 was determined as 14 nM.
As for `CC[C@@H](Nc1c(Nc2ccc(Cl)c(S(=O)(=O)N(CC)OC)c2O)c(=O)c1=O)c1ccc(C)o1` [Example 2.43, (R)-6-chloro-N-ethyl-2-hydroxy-N-methoxy-3-(2-(1-(5-methylfuran-2-yl)propylamino)-3,4-dioxocyclobut-1-enylamino)benzenesulfonamide], the IC50 is 17 nM.
To `CCOC[C@H](C)Nc1c(Nc2ccc(Cl)c(S(=O)(=O)N(C)OC)c2O)c(=O)c1=O` [Example 2.47, (S)-6-chloro-3-(2-(1-ethoxypropan-2-ylamino)-3,4-dioxocyclobut-1-enylamino)-2-hydroxy-N-methoxy-N-methylbenzenesulfonamide] belongs 19 nM.
The figure for `CCC(Nc1c(Nc2ccc(Cl)c(S(=O)(=O)N(C)OC)c2O)c(=O)c1=O)c1cccnc1` (stereo not shown) [Example 2.50, 6-chloro-3-(3,4-dioxo-2-(1-(pyridin-3-yl)propylamino)cyclobut-1-enylamino)-2-hydroxy-N-methoxy-N-methylbenzenesulfonamide] is 93 nM; for `CCCC(CCC)Nc1c(Nc2ccc(Cl)c(S(=O)(=O)N(C)OC)c2O)c(=O)c1=O` [Example 2.57, 6-chloro-3-(2-(heptan-4-ylamino)-3,4-dioxocyclobut-1-enylamino)-2-hydroxy-N-methoxy-N-methylbenzenesulfonamide] it is 26 nM; for `CCN(OC)S(=O)(=O)c1c(Cl)ccc(Nc2c(N[C@H](C)c3ccccc3)c(=O)c2=O)c1O` [Example 2.58, (R)-6-chloro-3-(3,4-dioxo-2-(1-phenylethylamino)cyclobut-1-enylamino)-N-ethyl-2-hydroxy-N-methoxybenzenesulfonamide] it is 28 nM.
To `CON(C)S(=O)(=O)c1c(Cl)ccc(Nc2c(NC3CCCC3)c(=O)c2=O)c1O` [Example 2.60, 6-chloro-3-(2-(cyclopentylamino)-3,4-dioxocyclobut-1-enylamino)-2-hydroxy-N-methoxy-N-methylbenzenesulfonamide] belongs 30 nM; to `CC[C@@H](Nc1c(Nc2cccc(S(=O)(=O)N(CC)OC)c2O)c(=O)c1=O)[C@@H]1CCCO1` [Example 2.71, 3-(3,4-dioxo-2-((R)-1-((S)-tetrahydrofuran-2-yl)propylamino)cyclobut-1-enylamino)-N-ethyl-2-hydroxy-N-methoxybenzenesulfonamide], 56 nM; to `CON(C)S(=O)(=O)c1c(Cl)ccc(Nc2c(N[C@H](C)c3cnn(C)c3)c(=O)c2=O)c1O` [Example 2.95, (R)-6-chloro-2-hydroxy-N-methoxy-N-methyl-3-(2-(1-(1-methyl-1H-pyrazol-4-yl)ethylamino)-3,4-dioxocyclobut-1-enylamino)benzenesulfonamide], 283 nM.
In the case of `CON(C)S(=O)(=O)c1c(Cl)ccc(Nc2c(N[C@H]3CCSC3)c(=O)c2=O)c1O` [Example 3, 6-Chloro-3-{3,4-dioxo-2-[(S)-(tetrahydro-thiophen-3-yl)amino]-cyclobut-1-enylamino}-2-hydroxy-N-methoxy-N-methyl-benzenesulfonamide], the IC50 was found to be 26 nM.
Compound `CON(C)S(=O)(=O)c1c(Cl)ccc(Nc2c(N[C@H](C)c3ccccc3)c(=O)c2=O)c1O` [Example 5, 6-Chloro-3-[3,4-dioxo-2-((R)-1-phenyl-ethylamino)-cyclobut-1-enylamino]-2-hydroxy-N-methoxy-N-methyl-benzenesulfonamide] displayed an IC50 of 33 nM.
In turn, `CC[C@@H](Nc1c(Nc2ccc(Cl)c(S(=O)(=O)N(C)OC)c2O)c(=O)c1=O)[C@H]1CC[C@@H](C)O1` [Example 6, 6-Chloro-2-hydroxy-N-methoxy-N-methyl-3-{2-[(R)-1-((2R,5R)-5-methyl-tetrahydro-furan-2-yl)-propylamino]-3,4-dioxo-cyclobut-1-enylamino}-benzene sulfonamide] came in with an IC50 of 28 nM.
To `CC[C@@H](Nc1c(Nc2ccc(Cl)c(S(=O)(=O)N(C)OC)c2O)c(=O)c1=O)c1ccccn1` [Example 7, 6-Chloro-3-[3,4-dioxo-2-((R)-1-pyridin-2-yl-propylamino)-cyclobut-1-enylamino]-2-hydroxy-N-methoxy-N-methyl-benzenesulfonamide] belongs 4 nM; to `CCC(CC)Nc1c(Nc2ccc(Cl)c(S(=O)(=O)N(C)OC)c2O)c(=O)c1=O` [Example 8, 6-Chloro-3-[2-(1-ethyl-propylamino)-3,4-dioxo-cyclobut-1-enylamino]-2-hydroxy-N-methoxy-N-methyl-benzenesulfonamide], 5 nM.
